According to ChEMBL document CHEMBL1201862, “PubChem BioAssay data set” (2004):
Calls of active or inactive are those of the source.

Columns and labels:
[1] = biological target: T1, Mannose-6-phosphate isomerase (Homo sapiens, UniProt P34949); experiment: phosphomannose isomerase inhibition – biochemical, fluorescence intensity, confirmation (AID 1535)
T1 sequence (P34949 whole entry): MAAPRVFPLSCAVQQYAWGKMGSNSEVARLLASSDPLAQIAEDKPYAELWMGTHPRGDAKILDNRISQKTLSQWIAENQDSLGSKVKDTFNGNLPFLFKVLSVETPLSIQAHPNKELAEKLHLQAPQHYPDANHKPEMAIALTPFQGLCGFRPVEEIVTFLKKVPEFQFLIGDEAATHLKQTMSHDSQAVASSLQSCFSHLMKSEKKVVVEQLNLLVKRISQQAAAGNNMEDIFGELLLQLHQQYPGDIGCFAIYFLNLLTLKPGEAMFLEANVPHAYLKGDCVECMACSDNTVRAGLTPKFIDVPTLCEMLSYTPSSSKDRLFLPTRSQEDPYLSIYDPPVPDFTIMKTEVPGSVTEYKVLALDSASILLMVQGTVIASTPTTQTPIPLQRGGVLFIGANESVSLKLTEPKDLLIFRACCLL

Phosphomannomutase 2 = biological target: T2, Phosphomannomutase 2 (Homo sapiens, UniProt O15305); experiment: Counter screen SAR assay for PMM2 inhibitors via a fluorescence intensity assay. [Related pubchem assays (depositor defined):AID1545, AID1574]
T2 sequence (O15305 whole entry): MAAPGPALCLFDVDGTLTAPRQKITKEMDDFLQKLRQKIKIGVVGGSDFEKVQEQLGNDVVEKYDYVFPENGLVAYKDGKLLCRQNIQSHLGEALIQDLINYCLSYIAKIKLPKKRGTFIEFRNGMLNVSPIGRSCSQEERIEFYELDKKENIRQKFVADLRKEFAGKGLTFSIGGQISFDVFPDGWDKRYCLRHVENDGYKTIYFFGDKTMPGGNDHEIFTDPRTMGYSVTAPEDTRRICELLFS

INS1 = experiment: INS-1E survival protection against cytokine death – cell-based, luminescence, retest, dose response (AID 449756); format: functional; conditions: Rattus norvegicus;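 further: cell death triggered by IL-1 beta plus TNF-alpha plus IFN-gamma mixture; protective hits raise ATP signal compared with cytokine alone wells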
Bcl-2-related protein A1 = biological target: T3, Bcl-2-related protein A1 (Mus musculus, UniProt Q07440); format: functional;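 further: confirmatory dose–response counterscreen on Bfl-1, used to check hits from a UBC13 polyubiquitin inhibitor campaign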
T3 sequence (Q07440 whole entry): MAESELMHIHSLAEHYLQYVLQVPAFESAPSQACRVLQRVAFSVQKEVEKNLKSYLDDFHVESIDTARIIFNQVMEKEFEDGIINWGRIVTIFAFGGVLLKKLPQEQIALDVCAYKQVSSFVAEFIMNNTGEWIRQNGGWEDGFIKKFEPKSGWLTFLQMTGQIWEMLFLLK

[2] = biological target: T4, Ubiquitin-conjugating enzyme E2 N (Homo sapiens, UniProt P61088); format: functional
T4 sequence (P61088 whole entry): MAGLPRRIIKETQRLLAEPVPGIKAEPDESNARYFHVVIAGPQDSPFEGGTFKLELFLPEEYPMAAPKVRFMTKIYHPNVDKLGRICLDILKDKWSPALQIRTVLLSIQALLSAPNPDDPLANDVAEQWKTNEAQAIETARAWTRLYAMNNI

[3] = biological target: T5, Short transient receptor potential channel 4 (Mus musculus, UniProt Q9QUQ5); experiment: calcium entry via TRPC4 opening agents – cell-based, HEK293 TRPC4/mu-opioid, Fluo-4 calcium, dose response (AID 434937); format: functional
T5 sequence (Q9QUQ5 whole entry): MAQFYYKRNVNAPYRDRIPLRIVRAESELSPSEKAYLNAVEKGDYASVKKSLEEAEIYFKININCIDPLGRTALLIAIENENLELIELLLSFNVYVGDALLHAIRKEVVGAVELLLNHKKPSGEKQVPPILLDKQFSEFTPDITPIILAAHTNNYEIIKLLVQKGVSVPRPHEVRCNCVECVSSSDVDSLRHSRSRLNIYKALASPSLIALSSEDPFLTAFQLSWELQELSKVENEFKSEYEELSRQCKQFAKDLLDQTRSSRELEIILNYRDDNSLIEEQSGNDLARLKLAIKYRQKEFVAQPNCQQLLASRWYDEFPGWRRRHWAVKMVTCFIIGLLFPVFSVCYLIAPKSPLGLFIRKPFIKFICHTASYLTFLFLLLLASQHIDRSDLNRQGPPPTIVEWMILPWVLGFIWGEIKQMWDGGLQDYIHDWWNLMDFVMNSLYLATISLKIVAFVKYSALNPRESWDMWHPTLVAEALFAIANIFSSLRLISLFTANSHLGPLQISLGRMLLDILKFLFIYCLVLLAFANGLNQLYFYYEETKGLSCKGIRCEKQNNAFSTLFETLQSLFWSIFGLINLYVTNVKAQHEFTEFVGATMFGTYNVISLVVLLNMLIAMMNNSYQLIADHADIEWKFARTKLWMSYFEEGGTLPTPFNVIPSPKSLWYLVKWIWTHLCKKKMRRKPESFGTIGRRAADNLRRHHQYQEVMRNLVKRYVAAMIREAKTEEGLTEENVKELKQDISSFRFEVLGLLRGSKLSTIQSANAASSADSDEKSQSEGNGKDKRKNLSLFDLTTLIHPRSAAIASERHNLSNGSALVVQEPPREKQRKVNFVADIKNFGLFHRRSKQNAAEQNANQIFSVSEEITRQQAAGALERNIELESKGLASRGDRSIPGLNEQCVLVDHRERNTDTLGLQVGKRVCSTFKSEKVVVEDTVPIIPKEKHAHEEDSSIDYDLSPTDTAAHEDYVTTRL

[4] = biological target: T4, Ubiquitin-conjugating enzyme E2 N; format: functional; remark: listed apart in the source
[5] = biological target: Peroxisome proliferator-activated receptor gamma/Nuclear receptor coactivator 2 (Homo sapiens, UniProt P37231); experiment: (§1) TR-FRET dose response biochemical High Throughput Screening assay for agonists of the steroid receptor coactivator 2 (SRC-2) recruitment by the peroxisome proliferator-activated receptor gamma (PPAR gamma): non-selective agonists. [Related pubchem assays: 1297, 1032 ]; format: functional
[6] = biological target: Peroxisome proliferator-activated receptor gamma/Nuclear receptor coactivator 1 (Homo sapiens, UniProt P37231); experiment: as §1, with “1 (SRC-1)” for “2 (SRC-2)”, “assays (depositor defined):AID1300, AID1808, AID504735, AID631]” for “assays: 1297, 1032 ]”; format: protein assay
[7] = biological target: Peroxisome proliferator-activated receptor gamma/Nuclear receptor coactivator 3 (Homo sapiens, UniProt P37231); experiment: as §1, with “3 (SRC-3)” for “2 (SRC-2)”, “1301 (Confirmation screen.), 1048 (Primary screen.)]” for “1297, 1032 ]”; format: functional
[8] = biological target: T6, Heat shock factor protein 1 (Mus musculus, UniProt P38532); experiment: decrease of HSF1-responsive luciferase luminescence – cell-based, NIH3T3, dose retest, confirmation (AID 2382); format: functional;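 further: NIH3T3 fibroblasts with HSF1-driven luciferase reporter stressed by proteasome inhibitor MG132; luminescence from HSF1-driven luciferase expression after 8 hours of MG132 stress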
T6 sequence (P38532 whole entry): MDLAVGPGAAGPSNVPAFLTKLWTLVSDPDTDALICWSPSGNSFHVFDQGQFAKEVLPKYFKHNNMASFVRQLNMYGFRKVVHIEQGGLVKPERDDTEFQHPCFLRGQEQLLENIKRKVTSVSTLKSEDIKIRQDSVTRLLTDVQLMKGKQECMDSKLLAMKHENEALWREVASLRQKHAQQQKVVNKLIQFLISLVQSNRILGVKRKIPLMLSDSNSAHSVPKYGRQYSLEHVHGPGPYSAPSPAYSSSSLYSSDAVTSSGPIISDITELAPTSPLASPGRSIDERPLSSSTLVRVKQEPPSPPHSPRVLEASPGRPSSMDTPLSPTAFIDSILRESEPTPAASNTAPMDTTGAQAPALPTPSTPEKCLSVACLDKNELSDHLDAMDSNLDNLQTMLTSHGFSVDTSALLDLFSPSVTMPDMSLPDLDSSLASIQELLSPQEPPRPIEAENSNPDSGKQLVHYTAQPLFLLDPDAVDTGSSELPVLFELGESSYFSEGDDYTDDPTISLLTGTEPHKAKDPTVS

[9] = biological target: ATP-dependent molecular chaperone HSP82 (Candida albicans (strain WO-1) (Yeast), UniProt C4YTQ8); experiment: steroid-induced GRE reporter decrease in yeast – S. cerevisiae, luminescence, Hsp90 inhibitor project, dose response (AID 2400); format: functional, cell-based;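 further: beta-galactosidase luminescence from glucocorticoid response element reporter as proxy for Hsp90 function; inhibitor potency where signal loss means Hsp90 inhibition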
[10] = NIH-3T3 fibroblast cytotoxicity, dose response, cytotoxicity control, cell-based, fluorescence, Alamar Blue, secondary assay (AID 2327); format: functional;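 further: NIH-3T3 mouse fibroblasts cultured with fluconazole at 8 µg/mL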
[11] = biological target: T7, Serine/threonine-protein phosphatase (Candida dubliniensis (strain CD36 / CBS 7987 / NCPF 3949 / NRRLY-17841) (Yeast), UniProt B9W6M3); experiment: blockers of CaCl2-induced CDRE-lacZ signaling – S. cerevisiae, luminescence, secondary, dose response (AID 2388); format: functional, cell-based;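 further: yeast reporter cells carrying a calcineurin-responsive lacZ construct stimulated with calcium chloride; luminescent beta-galactosidase reporter signal in whole cells rather than isolated phosphatase activity; potency for inhibition where a drop in reporter signal means calcineurin blockade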
T7 sequence (B9W6M3 whole entry): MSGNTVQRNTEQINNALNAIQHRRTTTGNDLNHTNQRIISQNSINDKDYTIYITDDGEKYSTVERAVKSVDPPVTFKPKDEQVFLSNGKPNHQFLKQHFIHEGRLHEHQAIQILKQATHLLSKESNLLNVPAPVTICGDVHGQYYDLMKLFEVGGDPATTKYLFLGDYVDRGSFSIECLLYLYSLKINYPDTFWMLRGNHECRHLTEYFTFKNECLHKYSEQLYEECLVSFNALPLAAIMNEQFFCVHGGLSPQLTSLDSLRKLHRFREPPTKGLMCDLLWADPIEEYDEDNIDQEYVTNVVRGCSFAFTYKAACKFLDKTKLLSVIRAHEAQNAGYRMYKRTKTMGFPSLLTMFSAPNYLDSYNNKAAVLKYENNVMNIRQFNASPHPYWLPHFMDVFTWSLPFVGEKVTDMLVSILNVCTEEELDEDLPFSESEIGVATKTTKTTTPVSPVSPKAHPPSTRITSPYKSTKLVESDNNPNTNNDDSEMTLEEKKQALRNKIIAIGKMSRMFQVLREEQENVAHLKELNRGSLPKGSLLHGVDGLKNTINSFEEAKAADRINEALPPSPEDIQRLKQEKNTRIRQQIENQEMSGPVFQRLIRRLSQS

[12] = fluconazole-exposed Candida albicans growth modulators – fluorescence, retest, confirmation (AID 2467); format: functional, cell-based

Chain of Peroxisome proliferator-activated receptor gamma/Nuclear receptor coactivator 2 (P37231 whole entry): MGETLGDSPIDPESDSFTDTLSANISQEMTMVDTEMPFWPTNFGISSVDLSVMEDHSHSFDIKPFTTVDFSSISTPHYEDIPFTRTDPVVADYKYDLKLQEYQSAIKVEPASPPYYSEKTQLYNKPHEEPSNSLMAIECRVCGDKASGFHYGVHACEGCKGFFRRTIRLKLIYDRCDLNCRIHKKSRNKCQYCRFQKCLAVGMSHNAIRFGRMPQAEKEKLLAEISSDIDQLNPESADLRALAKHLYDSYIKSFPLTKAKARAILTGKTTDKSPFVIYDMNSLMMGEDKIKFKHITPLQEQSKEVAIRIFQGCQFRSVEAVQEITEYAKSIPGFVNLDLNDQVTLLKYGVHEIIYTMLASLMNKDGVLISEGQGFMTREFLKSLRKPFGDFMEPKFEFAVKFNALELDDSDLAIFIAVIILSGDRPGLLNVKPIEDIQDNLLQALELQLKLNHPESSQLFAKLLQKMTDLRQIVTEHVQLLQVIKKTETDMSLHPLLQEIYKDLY
Chain of Peroxisome proliferator-activated receptor gamma/Nuclear receptor coactivator 2 (Q15596 whole entry, further chain): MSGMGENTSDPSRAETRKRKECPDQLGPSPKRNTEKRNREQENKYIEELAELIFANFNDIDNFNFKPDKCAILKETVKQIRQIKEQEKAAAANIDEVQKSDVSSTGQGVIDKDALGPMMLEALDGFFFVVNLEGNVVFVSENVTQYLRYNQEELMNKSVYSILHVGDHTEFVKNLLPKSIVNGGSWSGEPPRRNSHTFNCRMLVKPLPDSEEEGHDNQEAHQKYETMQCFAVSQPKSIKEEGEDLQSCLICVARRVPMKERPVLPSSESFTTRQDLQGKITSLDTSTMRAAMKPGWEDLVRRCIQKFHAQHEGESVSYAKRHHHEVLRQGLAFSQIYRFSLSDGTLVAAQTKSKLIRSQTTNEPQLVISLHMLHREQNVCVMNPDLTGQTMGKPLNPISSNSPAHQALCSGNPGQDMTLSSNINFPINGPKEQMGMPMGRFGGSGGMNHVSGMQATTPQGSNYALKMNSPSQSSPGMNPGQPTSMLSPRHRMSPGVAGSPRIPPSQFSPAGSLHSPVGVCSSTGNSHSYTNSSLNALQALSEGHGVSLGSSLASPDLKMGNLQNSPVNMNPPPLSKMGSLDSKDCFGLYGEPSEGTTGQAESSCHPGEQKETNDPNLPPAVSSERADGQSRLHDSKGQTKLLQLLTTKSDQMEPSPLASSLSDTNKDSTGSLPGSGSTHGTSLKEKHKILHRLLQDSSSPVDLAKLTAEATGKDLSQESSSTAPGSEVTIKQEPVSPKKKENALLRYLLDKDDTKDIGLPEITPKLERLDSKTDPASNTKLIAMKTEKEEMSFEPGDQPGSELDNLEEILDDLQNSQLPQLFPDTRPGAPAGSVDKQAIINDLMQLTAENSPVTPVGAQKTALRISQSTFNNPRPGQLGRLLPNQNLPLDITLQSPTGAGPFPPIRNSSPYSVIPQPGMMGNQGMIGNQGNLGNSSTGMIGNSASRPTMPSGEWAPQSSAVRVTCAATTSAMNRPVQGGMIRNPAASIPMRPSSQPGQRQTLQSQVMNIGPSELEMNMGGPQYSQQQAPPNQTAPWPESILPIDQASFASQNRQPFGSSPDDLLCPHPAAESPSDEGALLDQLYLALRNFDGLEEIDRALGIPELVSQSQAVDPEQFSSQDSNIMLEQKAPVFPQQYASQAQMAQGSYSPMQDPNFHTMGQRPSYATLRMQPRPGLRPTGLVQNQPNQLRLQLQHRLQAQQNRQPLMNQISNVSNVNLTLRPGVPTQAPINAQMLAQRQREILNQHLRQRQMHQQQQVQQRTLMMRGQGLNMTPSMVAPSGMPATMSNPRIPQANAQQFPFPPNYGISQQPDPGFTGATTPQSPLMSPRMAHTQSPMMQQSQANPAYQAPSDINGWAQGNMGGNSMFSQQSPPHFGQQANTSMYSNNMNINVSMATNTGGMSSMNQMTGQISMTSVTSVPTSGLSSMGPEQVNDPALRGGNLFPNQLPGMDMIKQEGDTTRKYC
Chain of Peroxisome proliferator-activated receptor gamma/Nuclear receptor coactivator 3 (P37231 whole entry): as the sequence (P37231 whole entry) above
Chain of Peroxisome proliferator-activated receptor gamma/Nuclear receptor coactivator 3 (Q9Y6Q9 whole entry, further chain): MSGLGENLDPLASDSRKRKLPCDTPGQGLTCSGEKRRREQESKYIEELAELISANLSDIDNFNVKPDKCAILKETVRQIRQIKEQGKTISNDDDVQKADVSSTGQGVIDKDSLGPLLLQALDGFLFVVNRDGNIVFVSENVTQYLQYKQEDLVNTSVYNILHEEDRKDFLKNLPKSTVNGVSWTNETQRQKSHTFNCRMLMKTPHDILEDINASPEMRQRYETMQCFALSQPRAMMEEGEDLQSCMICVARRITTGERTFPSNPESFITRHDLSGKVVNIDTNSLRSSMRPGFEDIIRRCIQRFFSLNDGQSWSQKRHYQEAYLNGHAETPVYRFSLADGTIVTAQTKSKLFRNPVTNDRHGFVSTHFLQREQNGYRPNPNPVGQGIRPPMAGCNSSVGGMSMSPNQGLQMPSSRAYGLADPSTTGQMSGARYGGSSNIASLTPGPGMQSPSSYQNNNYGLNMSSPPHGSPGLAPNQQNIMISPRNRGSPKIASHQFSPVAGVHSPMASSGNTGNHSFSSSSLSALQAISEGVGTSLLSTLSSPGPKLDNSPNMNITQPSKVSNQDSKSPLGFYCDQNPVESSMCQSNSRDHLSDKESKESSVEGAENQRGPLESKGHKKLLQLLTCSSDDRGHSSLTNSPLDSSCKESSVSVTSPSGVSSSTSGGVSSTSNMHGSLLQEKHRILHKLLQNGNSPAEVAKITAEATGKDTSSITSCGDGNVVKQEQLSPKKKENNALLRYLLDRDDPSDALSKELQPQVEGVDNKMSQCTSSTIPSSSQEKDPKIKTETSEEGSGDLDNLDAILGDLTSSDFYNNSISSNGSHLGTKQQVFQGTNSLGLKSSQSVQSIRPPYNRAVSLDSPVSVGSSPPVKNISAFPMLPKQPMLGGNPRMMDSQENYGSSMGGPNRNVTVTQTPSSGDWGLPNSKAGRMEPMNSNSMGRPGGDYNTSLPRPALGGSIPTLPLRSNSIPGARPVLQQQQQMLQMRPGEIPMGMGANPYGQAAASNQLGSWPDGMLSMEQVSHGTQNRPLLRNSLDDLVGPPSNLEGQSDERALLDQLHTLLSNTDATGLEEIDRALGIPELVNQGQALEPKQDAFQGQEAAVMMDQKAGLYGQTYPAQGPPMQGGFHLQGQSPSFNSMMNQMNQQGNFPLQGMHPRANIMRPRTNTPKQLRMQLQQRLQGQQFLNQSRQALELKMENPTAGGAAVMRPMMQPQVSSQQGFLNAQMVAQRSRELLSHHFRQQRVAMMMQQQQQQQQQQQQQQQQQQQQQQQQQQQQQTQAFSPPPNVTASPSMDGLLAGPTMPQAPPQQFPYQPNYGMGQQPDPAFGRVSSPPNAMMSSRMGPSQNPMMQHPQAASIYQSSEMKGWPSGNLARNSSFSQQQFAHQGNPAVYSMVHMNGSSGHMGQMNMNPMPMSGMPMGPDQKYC
Chain of ATP-dependent molecular chaperone HSP82 (C4YTQ8 whole entry): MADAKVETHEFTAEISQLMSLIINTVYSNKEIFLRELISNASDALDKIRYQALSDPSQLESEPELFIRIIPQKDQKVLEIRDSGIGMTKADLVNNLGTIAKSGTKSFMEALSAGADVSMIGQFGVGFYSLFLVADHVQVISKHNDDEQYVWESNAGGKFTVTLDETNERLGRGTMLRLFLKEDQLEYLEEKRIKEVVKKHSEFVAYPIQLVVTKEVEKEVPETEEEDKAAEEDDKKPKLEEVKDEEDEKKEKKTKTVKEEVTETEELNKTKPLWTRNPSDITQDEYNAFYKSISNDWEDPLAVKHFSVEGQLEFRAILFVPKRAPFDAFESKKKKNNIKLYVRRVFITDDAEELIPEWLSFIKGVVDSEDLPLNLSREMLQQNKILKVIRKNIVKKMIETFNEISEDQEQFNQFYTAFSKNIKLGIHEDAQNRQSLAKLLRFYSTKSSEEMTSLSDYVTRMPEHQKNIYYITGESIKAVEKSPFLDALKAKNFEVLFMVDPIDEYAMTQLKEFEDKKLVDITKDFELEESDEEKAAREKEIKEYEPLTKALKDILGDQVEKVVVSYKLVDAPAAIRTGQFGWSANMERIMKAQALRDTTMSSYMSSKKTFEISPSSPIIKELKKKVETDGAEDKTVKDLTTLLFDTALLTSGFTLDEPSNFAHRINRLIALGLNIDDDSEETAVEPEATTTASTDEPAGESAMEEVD

| IC50 (Bcl-2-related protein A1) | IC50 [2] | IC50 [4] | EC50 [5] | EC50 [6] | EC50 [7] | SMILES | other results |
| --- | --- | --- | --- | --- | --- | --- | --- |
| – | – | – | – | – | – | Cc1ccncc1/N=c1\ssnc1Cl | IC50 [1]: 34 µM (active); IC50 (Phosphomannomutase 2): > 100 µM (inactive) |
| > 20 µM (inactive) | 3.87 µM (active) | 1.89 µM (active) | – | – | – | O=C(NCC1CCN(Cc2cccc(Cl)c2)CC1)C1CCCN(c2ncnc3c2nc2n3CCCCC2)C1 (stereo not given) | – |
| – | – | – | 237 µM (not active) | > 79.4 µM (inactive) | > 79.4 µM (not active) | CCSc1nnc(-c2ccccc2SC)o1 | – |
| > 20 µM (inactive) | 8.3 µM (active) | 10.2 µM (active) | – | – | – | CCCC(C(=O)NC(C)(C)C)N(C(=O)c1snc(C(N)=O)c1N)c1ccc2c(c1)OCCO2 (stereo not given) | EC50 [8]: 1.58 µM (active) |
| – | – | – | – | – | – | O=[N+]([O-])c1ccc(O)c(P(=O)(c2ccccc2)c2ccccc2)c1 | EC50 [9]: > 150 µM (inactive); EC50 [10]: > 150 µM (inactive); EC50 [11]: > 180 µM (inactive); EC50 [12]: 0.698 µM (active) |
| – | – | – | > 26.5 µM (not active) | 27.6 µM (inactive) | > 79.4 µM (not active) | NC(=O)CSc1ncnc2c1oc1ccccc12 | – |
| – | – | – | 2.47 µM (active) | 2.28 µM (active) | 21.7 µM (not active) | CC(C)OC(=O)CNc1nnc(S)nc1O | – |
| – | – | – | 11.8 µM (not active) | 8.31 µM (active) | 16.1 µM (not active) | Fc1ccc(-c2nnsc2Sc2ccccn2)cc1 | – |

| SMILES | IC50 (Bcl-2-related protein A1) | IC50 [2] | IC50 [4] | EC50 [5] | EC50 [6] | EC50 [7] | other results |
| --- | --- | --- | --- | --- | --- | --- | --- |
| CN(C)CCCN(C(=O)c1ccc(S(=O)(=O)N(C)Cc2ccccc2)cc1)c1nc2cc3c(cc2s1)OCO3 | > 20 µM (inactive) | 11.5 µM (active) | 5.54 µM (active) | – | – | – | AC50 (INS1): > 120 µM (inactive); EC50 [3]: 9.44 µM (active) |
